Test results taken from patent US5883240A, “Genetic sequences encoding glucocorticoid dehydrogenases and uses therefor” (Baker Medical Research Institute, priority 1995, dated 1999).

Assays:
[1] = biological target: T1, 11 βHSD2 (Homo sapiens, UniProt P80365); test: Directionality and end-product inhibition in intact pHSD2 transfected CHOP cells; assay type: cell-based; settings: monolayer cultures, 1.5 hours at 37° C., labelled substrate, TLC of culture medium
T1 sequence (P80365 1-405 V148L): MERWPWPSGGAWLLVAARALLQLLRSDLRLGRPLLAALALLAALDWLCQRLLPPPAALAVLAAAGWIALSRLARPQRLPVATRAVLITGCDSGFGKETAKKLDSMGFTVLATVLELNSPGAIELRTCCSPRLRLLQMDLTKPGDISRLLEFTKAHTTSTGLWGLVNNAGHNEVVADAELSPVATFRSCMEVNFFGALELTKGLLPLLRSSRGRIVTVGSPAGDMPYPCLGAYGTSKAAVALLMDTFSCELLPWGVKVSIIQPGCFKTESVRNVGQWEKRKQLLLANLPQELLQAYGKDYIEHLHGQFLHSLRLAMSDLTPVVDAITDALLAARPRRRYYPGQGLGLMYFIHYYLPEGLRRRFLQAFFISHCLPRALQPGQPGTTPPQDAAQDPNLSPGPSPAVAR
Description: To determine directionality and extent of end production inhibition of the enzyme encoded by pHSD2, monolayer cultures of transfected CHOP cells were incubated for 1.5 hours at 37° C. with 1-2 nM labelled substrates plus 10 nM corresponding unlabelled 11-dehydro metabolite (FIG. 2b). The culture medium was then removed, extracted and assayed by TLC for the presence of the 11-dehydro metabolite.

[2] = biological target: T1, 11 βHSD2; assay type: biochemical; settings: substrate Km, double reciprocal plot, homogenates of pHSD2 transfected CHOP cells, 37° C., mean±SD, n=3
From the text: The efficiency of the dehydrogenase may be further increased by mechanisms such as intracellular compartmentalisation of the enzyme.

[3] = biological target: T1, 11 βHSD2; test: Cofactor specificity of glucocorticoid metabolism in homogenates of pHSD2 transfected CHOP cells; assay type: biochemical; settings: 1 mM NAD+ or 1 mM NADP+, 1-2 nM tritiated plus 10 nM unlabelled substrate, 37° C., 40 minutes, TLC
Description: CHOP cells were transfected with plasmid pHSD2, which contains an insert encoding 11 βHSD2. After 60 hours incubation in 85 mm plates, cellular homogenates were prepared and assayed for their ability to metabolise glucocorticoid substrates in the presence of 1 mM NAD+, or 1 mM NADP+. Confluent cells were homogenised in 1 ml of homogenisation buffer (0.25M sucrose, 10 MM phosphate, pH 7). Reaction mixtures (500 μl) contained either 40 μl of homogenate plus [^3 H]corticosterone, or 80 μl of homogenate plus [^3 H]cortisol, or 120 μl of homogenate plus [^3 H]dexamethasone, in homogenisation buffer. All reactions contained 1-2 nM tritiated glucocorticoid substrate plus 10 nM unlabelled glucocorticoid substrate. Reaction mixtures were incubated at 37° C. for 40 minutes and steroid metabolites were assayed by thin layer chromatography.

C[C@]12CC(=O)[C@H]3[C@@H](CCC4=CC(=O)CC[C@@]43C)[C@@H]1CC[C@@H]2C(=O)CO [11-dehydro corticosterone]
metabolite formation by intact transfected CHOP cells [1]: no metabolite formed

C[C@]12C[C@H](O)[C@H]3[C@@H](CCC4=CC(=O)CC[C@@]43C)[C@@H]1CC[C@@H]2C(=O)CO [corticosterone]
metabolite formation by intact transfected CHOP cells [1]: converted
Km [2]: 0.0044 ± 0.0012 µM
glucocorticoid metabolism to 11-dehydro metabolite, cofactor dependence [3]: only showed significant glucocorticoid metabolism when NAD+, but not NADP+, was included as a cofactor

C[C@]12CCC(=O)C=C1CC[C@@H]1[C@@H]2[C@@H](O)C[C@@]2(C)[C@H]1CC[C@]2(O)C(=O)CO [cortisol]
metabolite formation by intact transfected CHOP cells [1]: converted
Km [2]: 0.047 ± 0.0018 µM
glucocorticoid metabolism to 11-dehydro metabolite, cofactor dependence [3]: only showed significant glucocorticoid metabolism when NAD+, but not NADP+, was included as a cofactor

C[C@]12CCC(=O)C=C1CC[C@@H]1[C@@H]2C(=O)C[C@@]2(C)[C@H]1CC[C@]2(O)C(=O)CO [cortisone]
metabolite formation by intact transfected CHOP cells [1]: no metabolite formed

C[C@@H]1C[C@H]2[C@@H]3CCC4=CC(=O)C=C[C@]4(C)[C@@]3(F)[C@@H](O)C[C@]2(C)[C@@]1(O)C(=O)CO [dexamethasone]
glucocorticoid metabolism to 11-dehydro metabolite, cofactor dependence [3]: only showed significant glucocorticoid metabolism when NAD+, but not NADP+, was included as a cofactor
